The text below walks through data of US4264620A, “Antihypertensive 5-substituted 2-pyrrolidinecarboxylic acids” (Santen Pharmaceutical Co., Ltd., priority 1978, dated 1981).

A word on the LD50: it is the dose expected to kill half of the subjects tested. Lower therefore signals a more toxic substance.

In data set [1] the test system is contractile response of isolated guinea-pig ileum to angiotensin I. Put plainly: Inhibition of contractile response of isolated guinea-pig ileum to angiotensin I (bioassay of angiotensin-converting enzyme inhibitory activity). To be noted: angiotensin I 0.1 μg/ml, Tyrode's solution 30° C., compound added 5 minutes before, read-out: Angiotensin I IC50: concentration of compound producing 50% inhibition of the contractive action of angiotensin I on the guinea-pig ileum. The source says: As the method of measurement of angiotensin-converting enzyme activity, bioassay for the contractile response of isolated smooth muscle or the pressor response of normal animals and biochemical assay for the enzyme isolated from lung or other organs of animals are known. The former is found more advantageous than the latter for the examination of the convertion of angiotensin I to angiotensin II in vivo.
In the present study, therefore, we adopted the bioassay for contractile response of isolated guinea-pig ileum to angiotensin I.
(§1) Isolated guinea-pig ileum was suspended in the organ bath containing 20 ml of Tyrode's solution of 30° C. gassed with 95% O2 +5% CO2. The contraction induced by the addition of angiotensin I (0.1 μg/ml) at intervals of 10 minutes was recorded on a recticorder (Nihon Koden) for 90 seconds using FD pick up (ST-1T-H, Nihon Koden).
(§2) The test compounds were added to the bath 5 minutes before the addition of angiotensin I.
The inhibitory activity of angiotensin-converting enzyme was calculated by the following formula. [formula]

Data set [2] relates to contractile response to bradykinin. Put plainly: Augmentation of contractile response of isolated guinea-pig ileum to bradykinin. The conditions noted are these: bradykinin 0.005 μg/ml, compound added 5 minutes before, read-out: Bradykinin AC50: concentration of compound producing 50% augmentation of the contractive action of bradykinin on the guinea-pig ileum. The procedure:
as §1, §2
From the fact that kininase II, which destroys bradykinin having contractile action of isolated guinea-pig ileum, is thought to be identical with angiotensin-converting enzyme, augmentation of the contractile response to bradykinin by test compounds was examined by using bradykinin (0.005 μg/ml) in place of angiotensin I according to the above mentioned method.

The target in data set [3] is T1, angiotensin-converting enzyme (Oryctolagus cuniculus, UniProt P12822).
T1 construct: extracted from rabbit lung; from tissue; host or cells: rabbit lung
T1 sequence (P12822 34-1310): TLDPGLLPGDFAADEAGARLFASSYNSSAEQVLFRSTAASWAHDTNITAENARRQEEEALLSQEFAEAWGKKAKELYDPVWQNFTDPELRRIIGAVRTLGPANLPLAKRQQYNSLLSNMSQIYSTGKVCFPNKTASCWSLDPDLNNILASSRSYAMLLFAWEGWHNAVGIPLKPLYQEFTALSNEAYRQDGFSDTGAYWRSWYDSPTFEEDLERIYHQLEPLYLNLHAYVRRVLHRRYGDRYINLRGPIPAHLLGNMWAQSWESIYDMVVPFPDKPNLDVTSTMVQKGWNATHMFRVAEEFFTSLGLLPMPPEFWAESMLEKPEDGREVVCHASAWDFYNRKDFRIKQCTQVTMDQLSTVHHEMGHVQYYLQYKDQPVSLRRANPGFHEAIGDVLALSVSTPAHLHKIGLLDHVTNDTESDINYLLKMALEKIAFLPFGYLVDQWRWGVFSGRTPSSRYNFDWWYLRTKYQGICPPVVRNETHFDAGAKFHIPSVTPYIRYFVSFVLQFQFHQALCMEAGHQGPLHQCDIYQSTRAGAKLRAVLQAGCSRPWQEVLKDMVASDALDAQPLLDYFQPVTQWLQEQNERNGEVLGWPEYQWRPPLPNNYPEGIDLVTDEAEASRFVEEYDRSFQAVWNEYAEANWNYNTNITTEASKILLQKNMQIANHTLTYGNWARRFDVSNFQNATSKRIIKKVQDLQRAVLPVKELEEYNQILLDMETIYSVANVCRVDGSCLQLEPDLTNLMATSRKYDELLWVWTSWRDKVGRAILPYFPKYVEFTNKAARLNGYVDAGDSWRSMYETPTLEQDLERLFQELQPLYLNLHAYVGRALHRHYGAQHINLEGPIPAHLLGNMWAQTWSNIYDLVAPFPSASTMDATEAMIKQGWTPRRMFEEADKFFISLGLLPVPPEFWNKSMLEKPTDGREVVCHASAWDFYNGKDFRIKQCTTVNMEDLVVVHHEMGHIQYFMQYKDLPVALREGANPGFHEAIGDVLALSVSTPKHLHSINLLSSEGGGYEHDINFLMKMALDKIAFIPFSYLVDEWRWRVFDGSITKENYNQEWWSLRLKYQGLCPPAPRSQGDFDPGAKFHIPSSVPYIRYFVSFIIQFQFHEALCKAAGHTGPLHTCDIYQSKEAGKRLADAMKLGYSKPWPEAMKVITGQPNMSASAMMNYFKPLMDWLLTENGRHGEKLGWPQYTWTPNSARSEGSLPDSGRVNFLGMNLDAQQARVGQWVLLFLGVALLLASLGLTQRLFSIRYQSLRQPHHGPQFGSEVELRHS
Put plainly: Inhibitory activity of angiotensin-converting enzyme extracted from rabbit lung (spectrophotometry, HHL substrate). Format: biochemical. The conditions noted are these: 5 mM HHL, pH 8.3, 37° C., 30 minutes, read-out: Angiotensin-converting enzyme IC50: concentration of compound producing 50% inhibition against angiotensin-converting enzyme. As for the experimental part: The activity of angiotensin-converting enzyme was measured by spectrophotometry according to the method of Biochem. Pharmacol., 20. 1637 (1971). That is, the absorbance of hippuric acid was measured, which is liberated by incubating hippuryl-L-histidyl-L-leucine (HHL) as substrate in the presence of angiotensin-converting enzyme extracted from rabbit lung. The reaction mixture is as follows: 100 mM phosphate buffer (pH 8.3) 300 mM sodium chloride 5 mM HHL […] enzyme inhibitor 5 mU enzyme 0.25 ml of the above mixture was incubated at 37° C. for 30 minutes and the reaction was stopped by adding 0.25 ml of 1 N hydrochloric acid. […] The absorbance of this solution was measured at 228 nm.

Another data set is described as follows: Acute toxicity test. The conditions noted are these: mouse, in vivo, ip. Format: in vivo. As for the experimental part: (§3) The male ddy-std strain mice (4 weeks of age, weighing 19-21 g) were placed in a breeding room of constant temperature and humidity (23±1° C., 55±5%) and fed freely pellet diet (CE-2, Clea Japan Inc.) and water ad. libitum for a week. The mice showing the normal growth were selected for the experiment.
(§4) Test compounds are suspended in 0.5% tragacanth solution, and administered intraperitoneally in a dose of 0.5 ml of 20 g body weight.

The next data set deals with male ddy-std strain mice. Put plainly: Acute toxicity test. To be noted: male ddy-std mice, intraperitoneally. Format: in vivo. The procedure:
as §3, §4

On to `C[C@H](CS)C(=O)N1CSC[C@H]1C(=O)O` [Compound Z, (4R)-3-[(2S)-3-mercapto-2-methylpropanoyl]-4-thiazolidinecarboxylic acid, reference compound], for which the IC50 in data set [1] came to 170 nM. In data set [2], the AC50 turned out to be 2.6 nM.
`O=C(O)C1CCC(c2ccccc2O)N1C(=O)CCS` (stereo not drawn) [Compound E, α1-5-(2-hydroxyphenyl)-1-(3-mercaptopropanoyl)-2-pyrrolidinecarboxylic acid]: the IC50 turned out to be 76 nM in data set [1] and 65 nM in data set [3]. Besides, the AC50 in data set [2] was 0.95 nM.
The like results for `O=C(O)C1CCC(c2ccc(O)cc2)N1C(=O)CCS` (stereo not drawn) [Compound B, α-5-(4-hydroxyphenyl)-1-(3-mercaptopropanoyl)-2-pyrrolidinecarboxylic acid] were, in that order, 480 nM, 440 nM and 9.8 nM.
As to `O=C(O)C1CCC(c2ccccc2O)N1C(=O)CCS` (stereo not drawn) [Compound A, α-5-(2-hydroxyphenyl)-1-(3-mercaptopropanoyl)-2-pyrrolidinecarboxylic acid], the values for the IC50 in data set [1] and in data set [3] were 170 nM and 560 nM, respectively. Further, the AC50 in data set [2] was determined as 1.8 nM. This compound also gave an LD50 in “Acute toxicity test” of 1000 to 1250 mg/kg. Further, the “Acute toxicity (result in words)” value in the data set with male ddy-std strain mice is “low”.
For the compound `C[C@H](CS)C(=O)N1C(C(=O)O)CCC1c1ccccc1O` (single isomer, unassigned) [Compound D], the IC50 in data set [1] came out at 150 nM; in data set [3], 1200 nM. The AC50 in data set [2] came out at 2.6 nM.
`C[C@H](CS)C(=O)N1C(C(=O)O)CCC1c1ccccc1O` (single isomer, unassigned) [Compound C]: the IC50 in data set [1] was 160 nM; in data set [3], 1100 nM. Moreover, in data set [2], the AC50 came to 2 nM.
